IC50 data for 15 compounds are collected here from patent publication US20100280021A1, “PYRIDOPYRIMIDINE PROTEIN TYROSINE PHOSPHATASE INHIBITORS” (priority 2005, published 2010).

The structures appear in SMILES notation.

This experiment addresses T1, Human PTP1B (1-321) (Homo sapiens, UniProt P18031).
T1 construct: Human PTP1B (1-321) was cloned from a human cDNA library; made in house; host or cells: E. coli
T1 sequence (P18031 1-321): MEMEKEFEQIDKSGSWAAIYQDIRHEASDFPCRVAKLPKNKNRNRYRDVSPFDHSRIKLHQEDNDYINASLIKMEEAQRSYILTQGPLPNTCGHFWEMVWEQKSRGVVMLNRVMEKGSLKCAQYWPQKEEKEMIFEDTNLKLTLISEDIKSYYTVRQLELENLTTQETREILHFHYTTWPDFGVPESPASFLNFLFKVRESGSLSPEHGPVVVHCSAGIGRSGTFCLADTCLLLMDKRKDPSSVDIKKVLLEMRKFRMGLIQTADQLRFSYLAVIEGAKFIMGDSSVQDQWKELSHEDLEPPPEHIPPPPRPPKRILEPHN
Kind of experiment: In vitro inhibition of PTP1B (PTPase assays: Malachite Green phosphopeptide method or DiFMUP method). Format: biochemical. Particulars: PTP1B inhibitory activity. On the procedure: Human PTP1B (1-321) was cloned from a human cDNA library using conventional molecular biology techniques. The cDNA sequence was identical to the published human PTP1B sequence (Accession number M33689). The protein was expressed and purified from E. coli as described by Barford D. et. al J. Mol. Biol (1994) 239, 726-730.
The measurement of PTPase activity was carried out using one of two methods:
The first method for the measurement of PTP1B inhibitory activity a tyrosine phosphorylated peptide based on the amino acid sequence of insulin receptor tyrosine autophosphorylation site 1146 (TRDI(pY)E) was used as substrate. The reaction conditions were as follows:
PTP1B (0.5-2 nM) was incubated with compound for 15 min in buffer containing 37.5 mM Bis-Tris buffer pH 6.2, 140 mMNaCl, 0.05% BSA and 2 mM DTT. The reaction was started by the addition of 50 μM substrate. After 20 min at room temperature (22-25° C.), the reaction was stopped with KOH and the amount of free phosphate measured using Malachite Green as previously described (Harder et al. 1994 Biochem J. 298; 395).
The second method was used for the measurement of general PTPase inhibitory activity across a panel of PTPases the substrate (6,8-difluoro-4-methylumbelliferyl phosphate (DiFMUP; from Molecular Probes) was used at the Km for each enzyme. The buffer conditions were identical as in the Malachite Green assay. The reaction was stopped with KOH. In this case the dephosphoryated product becomes fluorescent and the fluorescense read (Excitiation: […]/Emmission: 460 nM).
The following Table lists IC50 results for several of the above exemplified compounds: […]
Take `CNc1nc(N)nc2nc(-c3ccccc3C)ccc12` [Example 1, N4-Methyl-7-o-tolyl-pyrido[2,3-d]pyrimidine-2,4-diamine]: the IC50 (usually the point on the concentration scale where inhibition reaches its midpoint) is 1660 nM. As for `CNc1nc(N)nc2nc(-c3c(Cl)cccc3Cl)ccc12` [Example 3, 7-(2,6-Dichloro-phenyl)-N4-methyl-pyrido[2,3-d]pyrimidine-2,4-diamine], the figure is 510 nM; as for `CNc1nc(N)nc2nc(C3CCCCC3)ccc12` [Example 9, 7-Cyclohexyl-N4-methyl-pyrido[2,3-d]pyrimidine-2,4-diamine], 1410 nM. Turning to `CNc1nc(N)nc2nc(-c3cccs3)ccc12` [Example 13, N4-Methyl-7-thiophen-2-yl-pyrido[2,3-d]pyrimidine-2,4-diamine], the IC50 is 3570 nM. Compared with the last compound, the IC50 is about 2.5-fold higher. The value for `CNc1nc(N)nc2nc(-c3ccccc3)c(-c3ccccc3)cc12` [Example 14, N4-Methyl-6,7-diphenyl-pyrido[2,3-d]pyrimidine-2,4-diamine] was 2560 nM; that for `CNc1nc(N)nc2nc3c(cc12)CCc1ccccc1-3` [Example 27, N8-Methyl-5,6-dihydro-benzo[h]pyrimido[4,5-b]quinoline-8,10-diamine] was 4220 nM; that for `CNc1nc(N)nc2nc(-c3cccc4ccccc34)ccc12` [Example 28, N4-Methyl-7-naphthalen-1-yl-pyrido[2,3-d]pyrimidine-2,4-diamine] was 1150 nM. As for `CNc1nc(N)nc2nc(-c3ccccc3C(F)(F)F)c(C(=O)O)cc12` [Example 56, 2-Amino-4-methylamino-7-(2-trifluoromethyl-phenyl)-pyrido[2,3-d]pyrimidine-6-carboxylic acid], the figure is 250 nM. The value for `CNc1nc(N)nc2nc(C3(c4ccccc4)CCCCC3)ccc12` [Example 59, N4-Methyl-7-(1-phenyl-cyclohexyl)-pyrido[2,3-d]pyrimidine-2,4-diamine] was 10800 nM. Regarding `CNc1nc(N)nc2nc(-c3c(Oc4ccccc4)cccc3C(F)(F)F)ccc12` [Example 80, N4-Methyl-7-(2-phenoxy-6-trifluoromethyl-phenyl)-pyrido[2,3-d]pyrimidine-2,4-diamine], the IC50 was 170 nM. As for `CNc1nc(N)nc2nc(-c3c(F)cccc3N3CCOCC3)ccc12` [Example 92, 7-(2-Fluoro-6-morpholino-4-yl-phenyl)-N4-methyl-pyrido[2,3-d]pyrimidine-2,4-diamine], the figure is 2330 nM. The value for `CNc1nc(N)nc2nc(-c3c(N4C(C)CCC4C)cccc3C(F)(F)F)ccc12` (stereo not drawn) [Example 107, 7-[2-(2,5-Dimethyl-pyrrolidin-1-yl)-6-trifluoromethyl-phenyl]-N4-methyl-pyrido[2,3-d]pyrimidine-2,4-diamine] was 800 nM. The value for `CNc1nc(N)nc2nc(-c3c(N4CCN(C(=O)c5ccco5)CC4)cccc3C(F)(F)F)ccc12` [Example 116, {4-[2-(2-Amino-4-methylamino-pyrido[2,3-d]pyrimidin-7-yl)-3-trifluoromethyl-phenyl]-piperazin-1-yl}-furan-2-yl-methanone] was 300 nM; that for `CNc1nc(N)nc2nc(-c3c(N4CCC(Cc5ccccc5)CC4)cccc3C(F)(F)F)ccc12` [Example 121, 7-[2-(4-Benzyl-piperidin-1-yl)-6-trifluoromethyl-phenyl]-N4-methyl-pyrido[2,3-d]pyrimidine-2,4-diamine] was 2050 nM. In turn, `CNc1nc(N)nc2nc(-c3ccccc3)cc(-c3ccccc3)c12` [Example 139, N*4*-Methyl-5,7-diphenyl-pyrido[2,3-d]pyrimidine-2,4-diamine] had an IC50 of 52400 nM.
